Source: ChEMBL document CHEMBL1150065, “Isolation of picropolygamain from the resin of Bursera simaruba” (J Nat Prod, 1992)

Experiments:
HT-29 = test: Cytotoxicity against human HT-29 cells; format: functional
MCF7 = test: Cytotoxicity against human MCF7 cells; format: functional
A549 = test: Cytotoxicity against human A549 cells; format: functional
Artemia = test: Toxicity in brine shrimp; format: organism-based

Structure (SMILES) | ED50 (HT-29) | ED50 (MCF7) | ED50 (A549) | EC50 (HT-29; Homo sapiens, HT-29, read-out: ED50 (the source's name)) | IC50 (Artemia) | EC50 (MCF7; Homo sapiens, MCF7, read-out: ED50 (the source's name)) | EC50 (A549; Homo sapiens, A549, read-out: ED50 (the source's name))
COc1cccc2c1C(=O)c1c(O)c3c(c(O)c1C2=O)C[C@@](O)(C(=O)CO)C[C@@H]3O[C@H]1C[C@H](N)[C@H](O)[C@H](C)O1 [DOXORUBICIN] | 1.12 ×10⁻⁴ ug/ml | 1.05 ×10⁻⁴ ug/ml | 4.09 ×10⁻⁴ ug/ml | – | – | – | –
O=C1OC[C@@H]2Cc3cc4c(cc3[C@@H](c3ccc5c(c3)OCO5)[C@H]12)OCO4 [PICROPOLYGAMAIN] | – | – | – | < 0.01 µg/mL | 52.2 ppm | < 0.01 µg/mL | < 0.01 µg/mL
